Common to all, as to type: cell-based
For assay [1], the system named is efflux mutants of E. coli. Description: Broth microdilution MIC (NCCLS), E. coli efflux mutants. The conditions noted are these: Escherichia coli, read-out: MICs. Here is the method:
(§1) Representative bis-quinazolines were tested for antibacterial activity using the […] microdilution method to determine their minimum inhibitory concentrations (MICs). All compounds were tested using standard methods in accordance with NCCLS guidelines (National Committee for Clinical Laboratory Standards. 2003. Methods for dilution antimicrobial susceptibility testing for bacteria that grow aerobically. Approved Standard M-7 A-6, NCCLS, Wayne, Pa.). The bacterial strains used in the susceptibility tests were obtained from the American Type Culture Collection (ATCC) and included resistant phenotypes such as oxacillin-resistant S. aureus (ORSA) and vancomycin-resistant enterococci (VRE). The minimum bactericidal concentrations (MBCs) were determined for selected organisms. The effect of protein binding on the antibacterial activity of representative bis-quinazolines were determined by conducting MIC tests in the presence of human serum.
For orientation: In broth dilution the organism is exposed to a series of concentrations in liquid medium.

The next assay deals with M. catarrhalis. Nature of the assay: Broth microdilution MIC (NCCLS), M. catarrhalis. The conditions noted are these: Moraxella catarrhalis, read-out: MIC range. The procedure: as §1
Assay [2] has as its system S. aureus, E. faecalis, S. pyogenes and S. pneumoniae. Description: Broth microdilution MIC (NCCLS), gram-positive strains. Summed up: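 MICs by broth microdilution per NCCLS M-7 A-6 against ATCC strains, including ORSA and VRE; MBCs determined for selected organisms. Serum effect assessed by repeating MIC tests with human serum present.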
Assay [3] deals with efflux mutants of P. aeruginosa. Description: Broth microdilution MIC (NCCLS), P. aeruginosa efflux mutants. Particulars: Pseudomonas aeruginosa, read-out: MICs. Here is the method: as §1
A further assay relates to H. influenzae. Nature of the assay: Broth microdilution MIC (NCCLS), H. influenzae. Particulars: Haemophilus influenzae; some strains of H. influenzae. The procedure:
as §1

Where [4] appears, read: range against some strains of S. aureus, E. faecalis, S. pyogenes and S. pneumoniae, read-out: MIC.

In brackets after ≈: the same amount, converted by molar mass. Counter-ions that a name gives are not always drawn. Like-named read-outs stand apart in the source and are kept apart here.

Drawing on patent US20050124562A1, “Bis-quinazoline compounds for the treatment of bacterial infections” (priority 2003, published 2005), this text covers MIC for 19 compounds.

Regarding `COc1cc2nc(Nc3nc(O)c4cccc(OC)c4n3)nc(CF)c2cc1OC.O=C(O)C(F)(F)F` [Example 87, 2-(4-Fluoromethyl-6,7-dimethoxy-quinazolin-2-ylamino)-8-methoxy-quinazolin-4-ol trifluoroacetate salt], the MIC in assay [1] was 16 to 64 µg/mL; with M. catarrhalis (some strains of M. catarrhalis) it was 2 to 64 µg/mL; in assay [2] (setting [4]) it was 0.06 to 16 µg/mL; in assay [3], 64 µg/mL; against H. influenzae, 16 to 32 µg/mL.
On to `COc1cc2nc(Nc3nc(O)c4c(OC)cccc4n3)nc(C)c2cc1OC.O=C(O)C(F)(F)F` [Example 84, 2-(6,7-Dimethoxy-4-methyl-quinazolin-2-ylamino)-5-methoxy-quinazolin-4-ol trifluoroacetate salt], for which the MIC in assay [1] is 16 to 64 µg/mL; in the assay on M. catarrhalis (some strains of M. catarrhalis), 2 to 64 µg/mL; in assay [2] (setting [4]), 0.06 to 16 µg/mL; in assay [3] it was 64 µg/mL; in the assay on H. influenzae, 16 to 32 µg/mL.
The matching figures for `COCCOc1ccc2nc(Nc3nc(O)c4c(OC)cccc4n3)nc(C)c2c1.O=C(O)C(F)(F)F` [Example 88, 5-Methoxy-2-[6-(2-methoxy-ethoxy)-4-methyl-quinazolin-2-ylamino]-quinazolin-4-ol trifluoroacetate salt]: 16 to 64 µg/mL, 2 to 64 µg/mL, 0.06 to 16 µg/mL, 64 µg/mL and 16 to 32 µg/mL.
The matching figures for `COc1cc2nc(Nc3nc(O)c4cc(OCCNC(C)CO)ccc4n3)nc(C)c2cc1OC.O=C(O)C(F)(F)F` (centres unmarked) [Example 169, 2-(6,7-Dimethoxy-4-methyl-quinazolin-2-ylamino)-6-[2-(2-hydroxy-1-methyl-ethylamino)-ethoxy]-quinazolin-4-ol trifluoroacetate salt]: 16 to 64 µg/mL, 2 to 64 µg/mL, 0.06 to 16 µg/mL, 64 µg/mL and 16 to 32 µg/mL.
`COc1cc2nc(Nc3nc(O)c4cc(OCCN5CCOC(CO)C5)ccc4n3)nc(C)c2cc1OC.O=C(O)C(F)(F)F` (centres unmarked) [Example 170, 2-(6,7-Dimethoxy-4-methyl-quinazolin-2-ylamino)-6-[2-(2-hydroxymethyl-morpholin-4-yl)-ethoxy]-quinazolin-4-ol trifluoroacetate salt]: the MIC in assay [1] was 16 to 64 µg/mL; with M. catarrhalis (some strains of M. catarrhalis), 2 to 64 µg/mL; in assay [2] (setting [4]), 0.06 to 16 µg/mL; in assay [3], 64 µg/mL; in the assay with H. influenzae it was 16 to 32 µg/mL.
Turning to `COc1cc2nc(Nc3nc(O)c4cc(OCCN5CCN(C)CC5)ccc4n3)nc(C)c2cc1OC.O=C(O)C(F)(F)F` [Example 147, 2-(6,7-Dimethoxy-4-methyl-quinazolin-2-ylamino)-6-[2-(4-methyl-piperazin-1-yl)-ethoxy]-quinazolin-4-ol trifluoroacetate salt], the MIC was 16 to 64 µg/mL in assay [1]; 2 to 64 µg/mL with M. catarrhalis (some strains of M. catarrhalis); 0.06 to 16 µg/mL in assay [2] (setting [4]); 64 µg/mL in assay [3]; 16 to 32 µg/mL against H. influenzae.
Regarding `COc1ccc2nc(Nc3nc(O)c4cc(C)cc(Br)c4n3)nc(C)c2c1` [Example 39, 8-Bromo-2-(6-methoxy-4-methyl-quinazolin-2-ylamino)-6-methyl-quinazolin-4-ol trifluoroacetate salt], the MIC in assay [1] was 16 to 64 µg/mL; in the assay on M. catarrhalis it was 2 to 64 µg/mL; in assay [2], 0.06 to 16 µg/mL; in assay [3] it was 64 µg/mL; in the assay on H. influenzae, 16 to 32 µg/mL.
For `COc1cc2nc(Nc3nc(O)c4cc(OCCCN5CCCC5)ccc4n3)nc(C)c2cc1OC.O=C(O)C(F)(F)F` [Example 151, 2-(6,7-Dimethoxy-4-methyl-quinazolin-2-ylamino)-6-(3-pyrrolidin-1-yl-propoxy)-quinazolin-4-ol trifluoroacetate salt], the MIC in assay [1] was 16 to 64 µg/mL; in the assay on M. catarrhalis (some strains of M. catarrhalis), 2 to 64 µg/mL; in assay [2] (setting [4]), 0.06 to 16 µg/mL; in assay [3], 64 µg/mL; in the assay on H. influenzae, 16 to 32 µg/mL.
For the compound `Cc1nc(Nc2nc(C)c3ccc4c(c3n2)OCCO4)nc2ccc(OCCN3CCC(O)C3)cc12` (centres unmarked) [Example 12, 1-{2-[4-Methyl-2-(8-methyl-2,3-dihydro-1,4-dioxa-5,7-diaza-phenanthren-6-ylamino)-quinazolin-6-yloxy]-ethyl}-pyrrolidin-3-ol], the MIC is 16 to 64 µg/mL (≈ 32.8 to 131 µM) in assay [1]; 2 to 64 µg/mL (≈ 4.09 to 131 µM) in the assay on M. catarrhalis; 0.06 to 16 µg/mL (≈ 0.123 to 32.8 µM) in assay [2]; 64 µg/mL (≈ 131 µM) in assay [3]; 16 to 32 µg/mL (≈ 32.8 to 65.5 µM) in the assay with H. influenzae.
On to `CCN(CC)CCOc1ccc2nc(Nc3nc(C)c4cc(OC)c(OC)cc4n3)nc(O)c2c1.O=C(O)C(F)(F)F` [Example 149, 6-(2-Diethylamino-ethoxy)-2-(6,7-dimethoxy-4-methyl-quinazolin-2-ylamino)-quinazolin-4-ol trifluoroacetate salt], for which the MIC was 16 to 64 µg/mL in assay [1]; 2 to 64 µg/mL in the assay on M. catarrhalis (some strains of M. catarrhalis); 0.06 to 16 µg/mL in assay [2] (setting [4]); 64 µg/mL in assay [3]; 16 to 32 µg/mL against H. influenzae.
For the compound `COc1cc(OC)c2nc(Nc3nc(O)c4cc(OCCN(C)CCO)ccc4n3)nc(C)c2c1.O=C(O)C(F)(F)F` [Example 140, 2-(6,8-Dimethoxy-4-methyl-quinazolin-2-ylamino)-6-{2-[(2-hydroxy-ethyl)-methyl-amino]-ethoxy}-quinazolin-4-ol trifluoroacetate salt], the MIC in assay [1] was 16 to 64 µg/mL; in the assay with M. catarrhalis (some strains of M. catarrhalis) it was 2 to 64 µg/mL; in assay [2] (setting [4]) it was 0.06 to 16 µg/mL; in assay [3], 64 µg/mL; in the assay with H. influenzae, 16 to 32 µg/mL.
The matching figures for `COCCOc1ccc2nc(Nc3nc(C)c4cc(OC)c(OC)cc4n3)nc(O)c2c1.O=C(O)C(F)(F)F` [Example 102, 2-(6,7-Dimethoxy-4-methyl-quinazolin-2-ylamino)-6-(2-methoxy-ethoxy)-quinazolin-4-ol trifluoroacetate salt]: 16 to 64 µg/mL, 2 to 64 µg/mL, 0.06 to 16 µg/mL, 64 µg/mL and 16 to 32 µg/mL.
Turning to `COc1cc2nc(Nc3nc(O)c4cc(OCCN(C)C)ccc4n3)nc(C)c2cc1OC.O=C(O)C(F)(F)F` [Example 146, 2-(6,7-Dimethoxy-4-methyl-quinazolin-2-ylamino)-6-(2-dimethylamino-ethoxy)-quinazolin-4-ol trifluoroacetate salt], the MIC in assay [1] was 16 to 64 µg/mL; in the assay with M. catarrhalis (some strains of M. catarrhalis), 2 to 64 µg/mL; in assay [2] (setting [4]), 0.06 to 16 µg/mL; in assay [3], 64 µg/mL; against H. influenzae it was 16 to 32 µg/mL.
For the compound `COc1cc2c(C)nc(Nc3nc(O)c4cccc(OC)c4n3)nc2cc1F.O=C(O)C(F)(F)F` [Example 86, 2-(7-Fluoro-6-methoxy-4-methyl-quinazolin-2-ylamino)-8-methoxy-quinazolin-4-ol trifluoroacetate salt], the MIC is 16 to 64 µg/mL in assay [1]; 2 to 64 µg/mL in the assay with M. catarrhalis (some strains of M. catarrhalis); 0.06 to 16 µg/mL in assay [2] (setting [4]); 64 µg/mL in assay [3]; 16 to 32 µg/mL in the assay with H. influenzae.
With `COc1cc2nc(Nc3nc(O)c4cc(N)cc(C)c4n3)nc(C)c2cc1OC.O=C(O)C(F)(F)F` [Example 120, 6-Amino-2-(6,7-dimethoxy-4-methyl-quinazolin-2-ylamino)-8-methyl-quinazolin-4-ol trifluoroacetate salt], the MIC in assay [1] is 16 to 64 µg/mL; with M. catarrhalis (some strains of M. catarrhalis), 2 to 64 µg/mL; in assay [2] (setting [4]), 0.06 to 16 µg/mL; in assay [3], 64 µg/mL; in the assay with H. influenzae, 16 to 32 µg/mL.
Taken in the same sequence, the figures for `COCCOc1cc2nc(Nc3nc(O)c4cccc(OC)c4n3)nc(C)c2cc1OCCOC.O=C(O)C(F)(F)F` [Example 89, 2-[6,7-Bis-(2-methoxy-ethoxy)-4-methyl-quinazolin-2-ylamino]-8-methoxy-quinazolin-4-ol trifluoroacetate salt] were 16 to 64 µg/mL, 2 to 64 µg/mL, 0.06 to 16 µg/mL, 64 µg/mL and 16 to 32 µg/mL.
For the compound `COc1ccc(OC)c2c(O)nc(Nc3nc(C)c4ccc5c(c4n3)OCCO5)nc12.O=C(O)C(F)(F)F` [Example 95, 5,8-Dimethoxy-2-(8-methyl-2,3-dihydro-1,4-dioxa-5,7-diaza-phenanthren-6-ylamino)-quinazolin-4-ol trifluoroacetate salt], the MIC was 16 to 64 µg/mL in assay [1]; 2 to 64 µg/mL in the assay on M. catarrhalis (some strains of M. catarrhalis); 0.06 to 16 µg/mL in assay [2] (setting [4]); 64 µg/mL in assay [3]; 16 to 32 µg/mL in the assay on H. influenzae.
Taken in the same sequence, the figures for `CCN(CCO)CCOc1ccc2nc(Nc3nc(C)c4cc(OC)c(OC)cc4n3)nc(O)c2c1.O=C(O)C(F)(F)F` [Example 159, 2-(6,7-Dimethoxy-4-methyl-quinazolin-2-ylamino)-6-{2-[ethyl-(2-hydroxy-ethyl)-amino]-ethoxy}-quinazolin-4-ol trifluoroacetate salt] were 16 to 64 µg/mL, 2 to 64 µg/mL, 0.06 to 16 µg/mL, 64 µg/mL and 16 to 32 µg/mL.
For the compound `CCOc1cccc2c(O)nc(Nc3nc(C)c4cc(OC)c(OC)cc4n3)nc12.O=C(O)C(F)(F)F` [Example 97, 2-(6,7-Dimethoxy-4-methyl-quinazolin-2-ylamino)-8-ethoxy-quinazolin-4-ol trifluoroacetate salt], the MIC in assay [1] is 16 to 64 µg/mL; with M. catarrhalis (some strains of M. catarrhalis), 2 to 64 µg/mL; in assay [2] (setting [4]), 0.06 to 16 µg/mL; in assay [3] it was 64 µg/mL; against H. influenzae, 16 to 32 µg/mL.
